Measurements from patent publication US6461997B1, “Triazole sulfones having herbicidal activity” (Monsanto Technology LLC, priority 1999, dated 2002).

How the values were obtained:
SASKR (russian thistle) = test: Pre-emergence herbicidal activity, cool season; type: in vivo, Salsola kali; settings: lowest tested rate with 80% or greater inhibition; rates 300, 100, 30, 10 g/ha; about 14 days
How it was run: (§1)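 Seeds sown in sterilised fertilised topsoil received surface-applied compound in 50:50 acetone/water, typically at 300, 100, 30 and 10 g/ha, then greenhouse-grown at 30/21° C (warm-season species) or 18/13° C (cool-season species). Percent inhibition versus untreated plants was scored at about 14 days, giving GR80; an asterisk marks activity short of 80% at the top rate.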

SINAR (wild mustard) = test: Pre-emergence herbicidal activity, cool season; type: in vivo, Sinapis arvensis; settings: lowest tested rate with 80% or greater inhibition; rates 300, 100, 30, 10 g/ha; about 14 days
How it was run: as §1

corn (ZEAMX) = test: Selectivity test, PPI, warm season crop; type: in vivo, Zea mays; settings: Zea mays, PPI application, read-out: Percent inhibition ZEAMX
Method: (§2) A pre-prepared topsoil mixture (described above) was placed in a pot and compacted to a depth of 1.0 to 1.25 cm from the top of the pot. Seeds of each of several monocotyledonous and dicotyledonous annual plant species were placed on top of the soil. A sufficient quantity of soil to cover the seeds and level fill the pot was weighed into an open container. A known amount of the test compound was dissolved or suspended in an organic solvent and applied by spraying to this cover soil. The cover soil was thoroughly mixed to distribute the test compound throughout the cover soil, and was then applied as a cover layer over the seeds. Untreated soil was used as a cover layer for control pots. After treatment the plants were placed in a greenhouse where they received 0.64 cm of overhead irrigation. All subsequent watering consisted of a light overhead mist and/or subirrigation as needed for germination and growth. Tables 9 and 10 below relate to warm season plant species which were placed after pre-emergence treatment in a greenhouse with a 30/21° C. day/night temperature regime. Tables 11 and 12 below relates to cool season plant species placed after pre-emergence treatment in a greenhouse or growth chamber with an 18/13° C. day/night temperature regime. Only the compounds of Examples 1, 6, 8, 11, 13 and 15-20 were included in PPI tests.
(§3) Approximately 14 days after planting and treating, the plants were observed and herbicidal efficacy recorded as percent inhibition by comparison with untreated plants.
Additional pre-emergence and PPI tests were conducted by the procedures described above, on warm and cool season weed species in the presence of crop species, to assess herbicidal selectivity. Crop species included in warm season tests were corn (Zea mays, ZEAMX), rice (Oryza sativa, ORYSA) and soybean (Glycine max, GLYMX). Crop species included in cool season tests were wheat (Triticum aestivum, TRZAW), barley (Hordeunm vulgare, HORVX) and oilseed rape (Brassica napus, BRSNS).
Tables 15 and 16 relate to pre-emergence and PPI tests respectively on warm season species. Table 17 relates to pre-emergence tests on cool season species.

ALOMY (blackgrass) = test: Pre-plant incorporated (PPI) herbicidal activity, cool season; type: in vivo, Alopecurus myosuroides
Method: (§4) In another set of tests, the pre-plant incorporated (PPI) activity of compounds of this invention was evaluated on the same species as for the pre-emergence tests described above. In the PPI tests the following procedure, designed to simulate PPI application, was used.
as §2, §3

[1] = tested on: GALAP (catchweed bedstraw); test: as above; type: in vivo, Galium aparine
Method: as §4, §2, §3

[2] = tested on: AGSST (creeping bentgrass); test: as above; type: in vivo, Agrostis stolonifera
Method: as §4, §2, §3

[3] = pre-plant incorporated, lowest tested rate with 80% or greater inhibition, about 14 days

C=CCC(F)(F)S(=O)(=O)c1ncn(C(=O)N(CC)CC)n1 [Example 17, 1-(N,N-diethylcarbamoyl)-3-[(1,1-difluoro-3-butenyl)sulfonyl]-1,2,4-triazole]
Pre-emergence activity GR80, SASKR (SASKR (russian thistle)): 100 g/ha
Pre-emergence activity GR80, SINAR (SINAR (wild mustard)): 100 g/ha
inhibition at 10 g/ha (corn (ZEAMX); 10 g/ha): 0%
inhibition at 30 g/ha (corn (ZEAMX); 30 g/ha): 0%
inhibition at 100 g/ha (corn (ZEAMX); 100 g/ha): 20%
inhibition at 300 g/ha (corn (ZEAMX); 300 g/ha): 30%
inhibition at 900 g/ha (corn (ZEAMX); 900 g/ha): 95%
inhibition at 10 g/ha (ALOMY (blackgrass); Alopecurus myosuroides, weed, PPI application, 10 g/ha, read-out: Percent inhibition ALOMY): 50%
inhibition at 30 g/ha (ALOMY (blackgrass); Alopecurus myosuroides, weed, PPI application, 30 g/ha, read-out: Percent inhibition ALOMY): 60%
inhibition at 100 g/ha (ALOMY (blackgrass); Alopecurus myosuroides, weed, PPI application, 100 g/ha, read-out: Percent inhibition ALOMY): 100%
inhibition at 300 g/ha (ALOMY (blackgrass); Alopecurus myosuroides, weed, PPI application, 300 g/ha, read-out: Percent inhibition ALOMY): 90%
inhibition at 900 g/ha (ALOMY (blackgrass); Alopecurus myosuroides, weed, PPI application, 900 g/ha, read-out: Percent inhibition ALOMY): 100%
PPI activity GR80, ALOMY (ALOMY (blackgrass); [3]): 30 g/ha
inhibition at 10 g/ha ([1]; Galium aparine, weed, PPI application, 10 g/ha, read-out: Percent inhibition GALAP): 0%
inhibition at 30 g/ha ([1]; Galium aparine, weed, PPI application, 30 g/ha, read-out: Percent inhibition GALAP): 60%
inhibition at 100 g/ha ([1]; Galium aparine, weed, PPI application, 100 g/ha, read-out: Percent inhibition GALAP): 40%
inhibition at 300 g/ha ([1]; Galium aparine, weed, PPI application, 300 g/ha, read-out: Percent inhibition GALAP): 80%
inhibition at 900 g/ha ([1]; Galium aparine, weed, PPI application, 900 g/ha, read-out: Percent inhibition GALAP): 100%
PPI activity GR80, GALAP [1, 3]: 100 g/ha
inhibition at 10 g/ha ([2]; Agrostis stolonifera, weed, PPI application, 10 g/ha, read-out: Percent inhibition AGSST): 70%
inhibition at 30 g/ha ([2]; Agrostis stolonifera, weed, PPI application, 30 g/ha, read-out: Percent inhibition AGSST): 95%
inhibition at 100 g/ha ([2]; Agrostis stolonifera, weed, PPI application, 100 g/ha, read-out: Percent inhibition AGSST): 95%
inhibition at 300 g/ha ([2]; Agrostis stolonifera, weed, PPI application, 300 g/ha, read-out: Percent inhibition AGSST): 100%
inhibition at 900 g/ha ([2]; Agrostis stolonifera, weed, PPI application, 900 g/ha, read-out: Percent inhibition AGSST): 100%
PPI activity GR80, AGSST [2, 3]: 10 g/ha
